Reference: publication PMC5877348, “Presence of a Haloarchaeal Halorhodopsin-Like Cl^− Pump in Marine Bacteria” (Microbes and Environments, 2018)

Legend:
[1] = biological target: T1, RmHR (Rubricoccus marinus halorhodopsin) (Rubricoccus marinus, UniProt A0A259U296); test: biochemical; parameters: gene BSZ36_14690
[2] = biological target: T1, RmHR (Rubricoccus marinus halorhodopsin); test: normal-phase HPLC of extracted retinal oxime; type: binding; parameters: gene BSZ36_14690; full-length codon-optimised synthetic gene in pET21a, C-terminal His6; expressed in E. coli, DDM-solubilised, purified; conditions: covalent (Schiff base); 1 M NaCl, 25°C, dark or illuminated at 540 nm; retinal supplied during expression

T1 sequence (A0A259U296 entry or part of it): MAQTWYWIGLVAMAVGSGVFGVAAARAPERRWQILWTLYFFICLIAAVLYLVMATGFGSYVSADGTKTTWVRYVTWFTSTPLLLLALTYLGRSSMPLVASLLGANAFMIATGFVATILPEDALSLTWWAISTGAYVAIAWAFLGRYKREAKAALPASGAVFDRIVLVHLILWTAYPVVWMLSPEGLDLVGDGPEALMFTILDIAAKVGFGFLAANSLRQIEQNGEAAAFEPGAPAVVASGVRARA

Row | SMILES | Kd [1] [mM] | normal-phase HPLC of extracted retinal oxime [2]
1 | Cl [Cl^−] | 7.6 ± 1.7 | –
2 | CC1=C(/C=C/C(C)=C/C=C/C(C)=C/C=O)C(C)(C)CCC1 [all-trans-retinal] | – | RmHR predominantly possesses all-trans retinal as a chromophore
